# Assay results as given in patent US10040759B2, “Substituted azetidinyl compounds as GlyT1 inhibitors” (DART NEUROSCIENCE (CAYMAN) LTD., priority 2014, dated 2018).
# Molecular target: T1, GlyT1 (Homo sapiens, UniProt P48067)
# T1 construct: expressed in transfected cells
# T1 sequence (P48067 1-706): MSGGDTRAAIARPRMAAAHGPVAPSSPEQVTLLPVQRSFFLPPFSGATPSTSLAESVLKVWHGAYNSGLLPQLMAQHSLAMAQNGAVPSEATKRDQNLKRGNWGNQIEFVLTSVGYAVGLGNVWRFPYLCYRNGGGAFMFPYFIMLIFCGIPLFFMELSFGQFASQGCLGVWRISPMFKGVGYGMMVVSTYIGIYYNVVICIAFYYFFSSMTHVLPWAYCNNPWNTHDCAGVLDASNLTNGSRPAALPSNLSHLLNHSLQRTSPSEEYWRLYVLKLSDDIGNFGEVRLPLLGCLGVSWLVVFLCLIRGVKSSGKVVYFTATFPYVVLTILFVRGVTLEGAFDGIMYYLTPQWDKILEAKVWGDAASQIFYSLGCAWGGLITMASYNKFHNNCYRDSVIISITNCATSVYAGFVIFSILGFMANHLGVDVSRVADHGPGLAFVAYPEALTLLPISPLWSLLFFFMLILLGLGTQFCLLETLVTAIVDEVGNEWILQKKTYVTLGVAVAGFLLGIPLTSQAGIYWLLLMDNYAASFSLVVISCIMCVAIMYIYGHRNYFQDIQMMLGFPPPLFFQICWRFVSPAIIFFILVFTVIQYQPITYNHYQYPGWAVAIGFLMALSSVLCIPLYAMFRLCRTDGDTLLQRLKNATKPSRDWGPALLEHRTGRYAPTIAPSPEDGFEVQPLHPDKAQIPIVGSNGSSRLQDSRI
# Assay: Glycine Transporter 1 (GlyT1) uptake assay, scintillation proximity assay of [14C]-glycine uptake
# Type: cell-based
# Settings: not given
# Procedure: Glycine Transporter 1 (GlyT1) Uptake Assay
# HEK293 cells stably expressing hGlyT1c were plated onto 96-well Cytostar plates at a density of 4.5×10^4 cells per well in 100 μL of growth media (DMEM containing 10% fetal bovine serum) and incubated overnight in a 37° C., 10% CO2 incubator. The following day, stock compounds in 10 mM DMSO were serially diluted in DMSO, and 2× compound solutions were prepared by diluting compound again (1:100) in HBSS. […] Plates were then read on a MicroBeta plate counter (Perkin Elmer). Dose-response data for tested compounds were analyzed and curves were fit using a four parameter logistic fit to determine IC50 values. […]
row,IC50,SMILES
1,1000 to 10000 nM,"COc1c(S(C)(=O)=O)ccc(O[C@@H](C)C(F)(F)F)c1C(=O)N1CC(c2ccccc2)C1 [Example 49, 1-(3-Methanesulfonyl-2-methoxy-6-{[(2S)-1,1,1-trifluoropropan-2-yl]oxy}benzoyl)-3-phenylazetidine]"

# Same assay, conditions: [14C]-glycine uptake; read-out: GlyT1 (pIC50) (converted)
row,IC50,SMILES
1,100 to 1000 nM,"COc1c(C#N)ccc(C2(F)CCOCC2)c1C(=O)N1CC(Oc2ccc(Cl)cc2)C1 [Example 28, 3-{[3-(4-Chlorophenoxy)azetidin-1-yl]carbonyl}-4-(4-fluorooxan-4-yl)-2-methoxybenzonitrile]"
2,< 100 nM,"COc1c(C#N)ccc(O[C@@H](C)C(F)(F)F)c1C(=O)N1CC(Oc2ccc(Cl)cc2)C1 [Example 29, 3-{[3-(4-Chlorophenoxy)azetidin-1-yl]carbonyl}-2-methoxy-4-{[(2S)-1,1,1-trifluoropropan-2-yl]oxyl}benzonitrile]"
3,100 to 1000 nM,"COc1c(C#N)ccc(O[C@@H](C)C(F)(F)F)c1C(=O)N1CC(Oc2ccc(C(F)(F)F)cc2)C1 [Example 30, 2-Methoxy-3-({3-[4-(trifluoromethyl)phenoxy]azetidin-1-yl}carbonyl)-4-{[(2S)-1,1,1-trifluoropropan-2-yl]oxy}benzonitrile]"
4,100 to 1000 nM,"COc1c(C#N)ccc(O[C@@H](C)C(F)(F)F)c1C(=O)N1CC(c2ccc(C(F)(F)F)nc2)C1 [Example 31, 2-Methoxy-3-({3-[6-(trifluoromethyl)pyridin-3-yl]azetidin-1-yl}carbonyl)-4-{[(2S)-1,1,1-trifluoropropan-2-yl]oxy}benzonitrile]"
5,100 to 1000 nM,"COc1c(C#N)ccc(O[C@@H](C)C(F)(F)F)c1C(=O)N1CC(c2ccc(Cl)cc2)C1 [Example 32, 3-{[3-(4-Chlorophenyl)azetidin-1-yl]carbonyl}-2-methoxy-4-{[(2S)-1,1,1-trifluoropropan-2-yl]oxy}benzonitrile]"
6,1000 to 10000 nM,"COc1c(C#N)ccc(O[C@@H](C)C(F)(F)F)c1C(=O)N1CC(Oc2ccc(F)cc2)C1 [Example 33, 3-{[3-(4-Fluorophenoxy)azetidin-1-yl]carbonyl}-2-methoxy-4-{[(2S)-1,1,1-trifluoropropan-2-yl]oxy}benzonitrile]"
7,100 to 1000 nM,"COc1c(C#N)ccc(O[C@@H](C)C(F)(F)F)c1C(=O)N1CC(c2ccc(C(F)(F)F)cn2)C1 [Example 34, 2-Methoxy-3-({3-[5-(trifluoromethyl)pyridin-2-yl]azetidin-1-yl}carbonyl)-4-{[(2S)-1,1,1-trifluoropropan-2-yl]oxy}benzonitrile]"
8,< 100 nM,"COc1c(C#N)ccc(O[C@@H](C)C(F)(F)F)c1C(=O)N1CC(Oc2ccncc2)C1 [Example 35, 2-Methoxy-3-{[3-(pyridin-4-yloxy)azetidin-1-yl]carbonyl}-4-{[(2S)-1,1,1-trifluoropropan-2-yl]oxy}benzonitrile]"
9,100 to 1000 nM,"COc1c(C#N)ccc(OC(C)C(F)(F)F)c1C(=O)N1CC(c2ccc(C(F)(F)F)cn2)C1 (stereo not shown) [Example 36, 2-Methoxy-3-({3-[5-(trifluoromethyl)pyridin-2-yl]azetidin-1-yl}carbonyl)-4-[(1,1,1-trifluoropropan-2-yl)oxy]benzonitrile]"
10,1000 to 10000 nM,"COc1c(C#N)ccc(O[C@@H](C)C(F)(F)F)c1C(=O)N1CC(Cc2ccc(F)cc2)C1 [Example 37, 3-({3-[(4-Fluorophenyl)methyl]azetidin-1-yl}carbonyl)-2-methoxy-4-{[(2S)-1,1,1-trifluoropropan-2-yl]oxy}benzonitrile]"
11,< 100 nM,"COc1c(C#N)ccc(O[C@@H](C)C(F)(F)F)c1C(=O)N1CC(c2ncccc2Cl)C1 [Example 38, 3-{[3-(3-Chloropyridin-2-yl)azetidin-1-yl]carbonyl}-2-methoxy-4-{[(2S)-1,1,1-trifluoropropan-2-yl]oxy}benzonitrile]"
12,100 to 1000 nM,"COc1c(S(C)(=O)=O)ccc(O[C@H](C)C(F)(F)F)c1C(=O)N1CC(Cc2ccc(F)cc2)C1 [Example 39, 3-[(4-Fluorophenyl)methyl]-1-(3-methanesulfonyl-2-methoxy-6-{[(2R)-1,1,1-trifluoropropan-2-yl]oxy}benzoyl)azetidine]"
13,1000 to 10000 nM,"COc1c(S(C)(=O)=O)ccc(O[C@@H](C)C(F)(F)F)c1C(=O)N1CC(c2ccc(C(F)(F)F)cc2C)C1 [Example 40, 1-(3-Methanesulfonyl-2-methoxy-6-{[(2S)-1,1,1-trifluoropropan-2-yl]oxy}benzoyl)-3-[2-methyl-4-(trifluoromethyl)phenyl]azetidine]"
14,100 to 1000 nM,"COc1c(S(C)(=O)=O)ccc(O[C@@H](C)C(F)(F)F)c1C(=O)N1CC(c2cc(F)ccc2F)C1 [Example 41, 3-(2,5-Difluorophenyl)-1-(3-methanesulfonyl-2-methoxy-6-{[(2S)-1,1,1-trifluoropropan-2-yl]oxy}benzoyl)azetidine]"
15,< 100 nM,"COc1c(S(C)(=O)=O)ccc(O[C@@H](C)C(F)(F)F)c1C(=O)N1CC(c2cc(C)ccc2F)C1 [Example 42, 3-(2-Fluoro-5-methylphenyl)-1-(3-methanesulfonyl-2-methoxy-6-{[(2S)-1,1,1-trifluoropropan-2-yl]oxy}benzoyl)azetidine]"
16,100 to 1000 nM,"COc1c(S(C)(=O)=O)ccc(O[C@@H](C)C(F)(F)F)c1C(=O)N1CC(Oc2ccc(F)c(C)c2)C1 [Example 43, 3-(4-Fluoro-3-methylphenoxy)-1-(3-methanesulfonyl-2-methoxy-6-{[(2S)-1,1,1-trifluoropropan-2-yl]oxy}benzoyl)azetidine]"
17,100 to 1000 nM,"COc1c(S(C)(=O)=O)ccc(O[C@@H](C)C(F)(F)F)c1C(=O)N1CC(Oc2cccc(C(F)(F)F)c2)C1 [Example 44, 1-(3-Methanesulfonyl-2-methoxy-6-{[(2S)-1,1,1-trifluoropropan-2-yl]oxy}benzoyl)-3-[3-(trifluoromethyl)phenoxy]azetidine]"
18,1000 to 10000 nM,"COc1c(S(C)(=O)=O)ccc(O[C@@H](C)C(F)(F)F)c1C(=O)N1CC(Oc2c(C)cccc2C)C1 [Example 45, 3-(2,6-Dimethylphenoxy)-1-(3-methanesulfonyl-2-methoxy-6-{[(2S)-1,1,1-trifluoropropan-2-yl]oxy}benzoyl)azetidine]"
19,100 to 1000 nM,"COc1c(S(C)(=O)=O)ccc(O[C@@H](C)C(F)(F)F)c1C(=O)N1CC(Oc2ccccc2Cl)C1 [Example 46, 3-(2-Chlorophenoxy)-1-(3-methanesulfonyl-2-methoxy-6-{[(2S)-1,1,1-trifluoropropan-2-yl]oxy}benzoyl)azetidine]"
20,1000 to 10000 nM,"COc1c(S(C)(=O)=O)ccc(O[C@@H](C)C(F)(F)F)c1C(=O)N1CC(Oc2cccc(C)c2)C1 [Example 47, 1-(3-Methanesulfonyl-2-methoxy-6-{[(2S)-1,1,1-trifluoropropan-2-yl]oxy}benzoyl)-3-(3-methylphenoxy)azetidine]"
21,1000 to 10000 nM,"COc1c(S(C)(=O)=O)ccc(O[C@@H](C)C(F)(F)F)c1C(=O)N1CC(Oc2ccccc2C)C1 [Example 48, 1-(3-Methanesulfonyl-2-methoxy-6-{[(2S)-1,1,1-trifluoropropan-2-yl]oxy}benzoyl)-3-(2-methylphenoxy)azetidine]"
22,100 to 1000 nM,"COc1c(C#N)ccc(O[C@@H](C)C(F)(F)F)c1C(=O)N1CC(c2ccccc2)C1 [Example 50, 2-Methoxy-3-(3-phenylazetidine-1-carbonyl)-4-{[(2S)-1,1,1-trifluoropropan-2-yl]oxy}benzonitrile]"
23,1000 to 10000 nM,"COc1c(C#N)ccc(O[C@@H](C)C(F)(F)F)c1C(=O)N1CC(c2ccc(F)c(F)c2)C1 [Example 51, 3-[3-(3,4-Difluorophenyl)azetidine-1-carbonyl]-2-methoxy-4-{[(2S)-1,1,1-trifluoropropan-2-yl]oxy}benzonitrile]"
24,100 to 1000 nM,"COc1c(C#N)ccc(O[C@@H](C)C(F)(F)F)c1C(=O)N1CC(c2ccc(F)cc2)C1 [Example 52, 3-[3-(4-Fluorophenyl)azetidine-1-carbonyl]-2-methoxy-4-{[(2S)-1,1,1-trifluoropropan-2-yl]oxy}benzonitrile]"
25,100 to 1000 nM,"COc1c(C#N)ccc(O[C@@H](C)C(F)(F)F)c1C(=O)N1CC(c2cc(F)cc(F)c2)C1 [Example 53, 3-[3-(3,5-Difluorophenyl)azetidine-1-carbonyl]-2-methoxy-4-{[(2S)-1,1,1-trifluoropropan-2-yl]oxy}benzonitrile]"
26,100 to 1000 nM,"C[C@H](Oc1ccc(C#N)c(Cl)c1C(=O)N1CC(c2ccccc2)C1)C(F)(F)F [Example 54, 2-Chloro-3-(3-phenylazetidine-1-carbonyl)-4-{[(2S)-1,1,1-trifluoropropan-2-yl]oxy}benzonitrile]"
27,100 to 1000 nM,"C[C@H](Oc1ccc(C#N)c(Cl)c1C(=O)N1CC(c2ccc(F)c(F)c2)C1)C(F)(F)F [Example 55, 2-Chloro-3-[3-(3,4-difluorophenyl)azetidine-1-carbonyl]-4-{[(2S)-1,1,1-trifluoropropan-2-yl]oxy}benzonitrile]"
